Entries after “also recorded” stand apart in the source; their conditions may differ.
How the values were obtained:
[1] = test system: pSTAT3 (Y705); assay: pSTAT3 knockdown in NCI-H1975 tumors (Example 69); assay type: in vivo, mice; details: Example 32 12.5, 25, 50 mg/kg BID, after one day of treatment
Experimental: (§1) Tumor volume was measured twice a week.
(§2) Materials and Methods: NCI-H1975 cells (a human NSCLC cell line with L858R and T790M mutations in the EGFR gene) tumor cells were implanted subcutaneously in female NCr nude mice (Taconic Laboratories), 3×10^6 cells/mouse. […] Drug levels in plasma were measured by LC/MS, using a Linear Ion Trap Quadrupole LC/MS/MS Mass Spectrometer (QTRAP 5500 model 1024945-BB, AB Sciex Instruments), with separation on a Waters Xbridge C18 column.

[2] = test system: NCI-H1650 tumor xenografts; assay: H1650 xenograft model, antitumor activity (Example 71); assay type: in vivo, mice
Experimental: as §1
(§3) Twenty-three days after cell implantation, the mice were randomized into 6 groups (9 mice/group, average tumor volume 257 mm^3, range 205-303 mm^3). […] Drug levels in plasma were measured by LC/MS, using a Linear Ion Trap Quadrupole LC/MS/MS Mass Spectrometer (QTRAP 5500 model 1024945-BB, AB Sciex Instruments), with separation on a Waters Xbridge C18 column.

[3] = test system: NCI-H1975 tumor xenografts; assay: H1975 xenograft model, antitumor activity (Example 69); assay type: in vivo, mice
Experimental: as §1
Materials and Methods: NCI-H1975 cells (a human NSCLC cell line with L858R and T790M mutations in the EGFR gene) tumor cells were implanted subcutaneously in female NCr nude mice (Taconic Laboratories), 3×10^6 cells/mouse.

[4] = test system: pSTAT3 (Y705); assay: pSTAT3 knockdown in PC-9 tumors (Example 70); assay type: in vivo, mice; details: gefitinib + Example 32 12.5 and 50 mg/kg BID; 2, 8 and 24 hours after the AM dose, last day
Experimental: as §1

[5] = Drug levels in plasma, H1975 xenograft mice (Example 69); assay type: in vivo; details: increasing dose of Example 32, one day of treatment
Experimental: as §2

[6] = test system: pSTAT3 (Y705); assay: pSTAT3 knockdown in LG1049 tumors (Example 72); assay type: in vivo, mice; details: Example 32 25 mg/kg BID, 5 days of treatment, 4H after the final dose
Experimental: as §1

[7] = test system: PC-9 tumor xenografts; assay: PC-9 xenograft model, antitumor activity (Example 70); assay type: in vivo, mice
Experimental: as §1

[8] = LG1049 xenograft PDX model, body weight (Example 72); assay type: in vivo, mice
Description: Materials and Methods: LG1049 tumor fragments were implanted subcutaneously in female NSG mice (JAX Stock No. 005557). Once tumor volumes reached ˜125-275 mm^3, mice were randomized into 5 groups (10 mice/group, average tumor volume 189 mm^3, range 138-253 mm^3).

[9] = test system: LG1049 non-small cell lung cancer PDX tumor xenografts; assay: LG1049 xenograft PDX model, antitumor activity (Example 72); assay type: in vivo, mice; details: for tumor regrowth when treatment was stopped after 28 days: osimertinib single agent or osimertinib + Example 32
Experimental: Summary: LG1049 non-small cell lung cancer PDX tumor xenografts were grown subcutaneously in female NSG mice. […] Tumor volume was measured twice a week.

[10] = test system: NCI-H1975 tumor xenografts; assay: H1975 xenograft model, intermittent Example 32 dosing schedules, antitumor activity (Example 73); assay type: in vivo, mice
Experimental: as §1
Materials and Methods: NCI-H1975 cells (a human NSCLC cell line with L858R and T790M mutations in the EGFR gene), were implanted subcutaneously in female NCr nude mice (Taconic Laboratories), 3×10^6 cells/mouse.

[11] = test system: pSTAT3; assay: pSTAT3 knockdown in NCI-H1650 tumors (Example 71); assay type: in vivo, mice; details: Example 32 as single agent and in combination with gefitinib, after one day of treatment
Experimental: as §1, §3

[12] = test system: pEGFR; assay: pEGFR knockdown in LG1049 tumors (Example 72); assay type: in vivo, mice; details: osimertinib 25 mg/kg QD, 5 days of treatment, 4H after the final dose

Q: Which “pSTAT3 knockdown in tumors” value [1] does the source give for `COc1nn(C)cc1Nc1nccc(-c2c[nH]c3c(NC(=O)[C@@H](C)N4CCN(C)CC4)cccc23)n1` [Example 32, (2R)-N-(3-{2-[(3-methoxy-1-methyl-1H-pyrazol-4-yl)amino]pyrimidin-4-yl}-1H-indol-7-yl)-2-(4-methylpiperazin-1-yl)propanamide] here?
A: Its value is “dose dependent increase in pSTAT3 knockdown”.

Q: What about the “antitumor activity, single agent” value ([2]; Example 32 25 or 50 mg/kg BID oral, 21 days) of the same molecule?
A: The value was “only modest antitumor activity”.

Q: And the “antitumor activity of combination with gefitinib compared to single agent gefitinib” value ([2]; gefitinib 6.25 mg/kg QD + Example 32 25 or 50 mg/kg BID, 21 days)?
A: Its value is “enhanced the antitumor activity of gefitinib”.

Q: What about the “dose dependence of the enhancement of antitumor activity” value (shortened to “dose dependence”) ([2]; gefitinib + Example 32 from 25 mg/kg to 50 mg/kg) of the same molecule?
A: Its value is “increased with increasing dose of Example 32”.

Q: And the “antitumor activity, single agent, relative to vehicle” value ([3]; Example 32 12.5, 25 or 50 mg/kg BID oral, 18 days)?
A: Its value is “no significant antitumor activity; also recorded: only weak antitumor activity”.

Q: And the “dose dependence” value ([3]; osimertinib 2.5 mg/kg QD + Example 32 12.5 mg/kg up to 50 mg/kg)?
A: The value was “increased with increasing dose of Example 32”.

Q: What about the “antitumor activity of combination with osimertinib compared to osimertinib alone” value ([3]; osimertinib 2.5 mg/kg QD + Example 32 12.5, 25 or 50 mg/kg BID oral, 18 days) of the same molecule?
A: The value was “enhanced the antitumor activity of osimertinib”.

Q: And the “pSTAT3 knockdown in tumors” value [4]?
A: The value was “dose dependent increase in the duration of pSTAT3 knockdown”.

Q: What about the “level of Example 32 in plasma” value [5] of the same molecule?
A: Its value is “increasing level of Example 32 in plasma”.

Q: What about the “knockdown of pSTAT3 in tumors” value [6] of the same molecule?
A: Its value is “robust knockdown”.

Q: What about the “antitumor activity of combination with gefitinib compared to gefitinib” value ([7]; gefitinib 6.25 mg/kg QD + Example 32, oral, 21 days) of the same molecule?
A: The value was “enhanced the antitumor activity of gefitinib”.

Q: And the “activity of combination compared to single agent gefitinib” value ([7]; gefitinib + 12.5 mg/kg Example 32 daily, and + 50 mg/kg Example 32 2 days on/5 days off)?
A: Its value is “greater activity than single agent gefitinib, but did not quite achieve statistical significance”.

Q: What about the “dose dependence” value ([7]; gefitinib + Example 32 from 12.5 mg/kg to 50 mg/kg) of the same molecule?
A: Its value is “increased with increasing dose of Example 32”.

Q: And the “weight loss, single agent” value ([8]; mouse, in vivo)?
A: Its value is “significant weight loss”.

Q: What about the “tumor regrowth when Example 32 treatment was continued after 28 days of combination” value ([9]; Example 32 25 mg/kg BID alone 3 days on/4 days off/wk after the combination) of the same molecule?
A: Its value is “tumors also regrew, but more slowly”.

Q: What about the “antitumor activity, single agent Example 32, relative to vehicle” value ([9]; Example 32 25 mg/kg BID oral, 18 days) of the same molecule?
A: The value was “no significant antitumor activity; also recorded: no significant activity relative to vehicle control treatment”.

Q: What about the “tumor regression, combination with osimertinib compared to osimertinib alone” value ([9]; osimertinib 25 mg/kg QD + Example 32 25 mg/kg BID (7 days, then 3 days on/4 days off/wk), 28 days) of the same molecule?
A: The value was “enhanced the tumor regression induced by osimertinib”.

Q: What about the “tumor regrowth when treatment was stopped after 28 days” value [9] of the same molecule?
A: Its value is “tumors rapidly regrew”.

Q: And the “antitumor activity, single agent, relative to vehicle” value ([10]; Example 32 50 mg/kg BID oral, 19 days)?
A: The value was “no significant activity relative to vehicle control treatment”.

Q: What about the “dose dependence” value ([10]; Example 32 50 mg/kg BID vs. 25 mg/kg BID with osimertinib) of the same molecule?
A: The value was “greater at the higher dose of Example 32”.

Q: And the “statistical significance of the difference, combination vs. osimertinib alone” value ([10]; after 26 days of treatment)?
A: Its value is “statistically significant after 26 days of treatment at all schedules of Example 32, with the exception of the groups in which Example 32 was dosed only for the first 7 days”.

Q: What about the “enhancement of osimertinib activity by schedule intensity of Example 32 (rank order)” value ([10]; osimertinib 2.5 mg/kg QD + Example 32) of the same molecule?
A: The value was “daily>4 on/3 off>7 on/7 off>2 on/5 off>just first 7 days”.

Q: And the “antitumor activity of combination with osimertinib compared to osimertinib alone” value ([10]; osimertinib 2.5 mg/kg QD + Example 32, continuous and intermittent schedules)?
A: The value was “enhanced the antitumor activity of osimertinib”.

Q: And the “pSTAT3 knockdown in tumors” value [11]?
A: The value was “Knockdown of pSTAT3 was observed”.

Q: Which “knockdown of pEGFR in tumors” value [12] does the source give for `C=CC(=O)Nc1cc(Nc2nccc(-c3cn(C)c4ccccc34)n2)c(OC)cc1N(C)CCN(C)C` [osimertinib, reference compound] here?
A: The value was “robust knockdown”.

Q: What about the “weight loss, single agent” value ([8]; LG1049 tumor bearing NSG mice, weight loss ascribed to tumor growth) of the same molecule?
A: The value was “lack of significant weight loss”.

Q: And the “antitumor activity, single agent osimertinib” value ([9]; osimertinib 25 mg/kg QD oral, 28 days)?
A: Its value is “tumor regression”.

Q: And the “tumor regrowth when treatment was stopped after 28 days” value [9]?
A: The value was “tumors rapidly regrew”.

— patent US10654835B2, “Compounds and methods for inhibiting JAK” (Dizal (Jiangsu) Pharmaceutical Co., Ltd., priority 2015, dated 2020)
